Patent US20010046986A1, “Method for controlling flies” (priority 2000, published 2001)

Test system: Musca domestica
Conditions: female Musca domestica imagoes of a sensitive strain; oral, 1 μL of 50 ppm liquid composition in 5% granulated sugar solution (0.05 μg clothianidin); after 24 hours
Description: Insecticidal test by oral administration to Musca domestica
A clothianidin solution in alcohol was diluted with 5% granulated sugar solution to prepare a 50 ppm liquid composition of clothianidin.
Female Musca domestica imagoes (ten flies) of a sensitive strain kept without water for 3˜4 hours were anesthetized and lightly fixed to a pressure sensitive adhesive sheet which was cut into strips. After the test insects came out from the anesthetic, 1 μL of the liquid composition (containing 0.05 μg of clothianidin) was released from an injection needle attached to a micro dropper so that the test insects inhaled the composition.

Structure (SMILES): CN/C(=N\[N+](=O)[O-])NCc1cnc(Cl)s1 [clothianidin, (E)-1-(2-chloro-1,3-thiazol-5-ylmethyl)-3-methyl-2-nitroguanidine]
- insecticidal effect (flies dead): all flies were dead
